Experiment: wn = mass fraction of the nth substance listed
Settings: Liquid; for mass density: Vibrating tube method

CN(C)CCO [2-(N,N-dimethylamino)ethanol] + O
mass density [kg/m3]
Settings | w1 = 0.1005 | w1 = 0.202 | w1 = 0.3005 | w1 = 0.3995
333.15 K, 130000 kPa | – | 1018.6 | 1012.4 | 1005.5
333.15 K, 140000 kPa | 1028.8 | 1021.9 | 1015.4 | 1008.7
353.15 K, 100 kPa | 965.2 | 958.1 | 950.2 | 941.1
353.15 K, 500 kPa | 965.3 | 958.1 | 950.3 | 941.2
353.15 K, 1000 kPa | 965.6 | 958.4 | 950.6 | 941.4
353.15 K, 2000 kPa | 966 | 958.8 | 951 | 941.9
353.15 K, 5000 kPa | 967.3 | 960.1 | 952.4 | 943.3
353.15 K, 10000 kPa | 969.5 | 962.4 | 954.7 | 945.8
353.15 K, 15000 kPa | 971.6 | 964.5 | 956.9 | 948.1
353.15 K, 20000 kPa | 973.8 | 966.7 | 959.1 | 950.5
353.15 K, 30000 kPa | 978 | 971 | 963.4 | 954.9
353.15 K, 40000 kPa | 982 | 975 | 967.5 | 959.2
353.15 K, 50000 kPa | 986 | 978.9 | 971.6 | 963.3
353.15 K, 60000 kPa | 989.9 | 982.7 | 975.6 | 967.5
353.15 K, 70000 kPa | 993.6 | 986.6 | 979.3 | 971.2
353.15 K, 80000 kPa | 997.4 | 990.1 | 983 | 975.1
353.15 K, 90000 kPa | 1000.9 | 993.8 | 986.6 | 978.7
353.15 K, 100000 kPa | 1004.6 | 997.3 | 990.1 | 982.4
353.15 K, 110000 kPa | 1008.1 | 1000.7 | 993.6 | 985.9
353.15 K, 120000 kPa | 1011.7 | 1004.1 | 997 | 989.3
353.15 K, 130000 kPa | 1014.9 | 1007.5 | 1000.3 | 992.7
353.15 K, 140000 kPa | 1018.3 | 1010.8 | 1003.5 | 996
373.15 K, 100 kPa | 950.7 | 942.4 | 933.3 | 923.1
373.15 K, 500 kPa | 950.9 | 942.7 | 933.6 | 923.4
373.15 K, 1000 kPa | 951.2 | 942.9 | 933.9 | 923.6
373.15 K, 2000 kPa | 951.7 | 943.4 | 934.4 | 924.2
373.15 K, 5000 kPa | 953 | 944.8 | 935.9 | 925.8
373.15 K, 10000 kPa | 955.4 | 947.2 | 938.4 | 928.4
373.15 K, 15000 kPa | 957.7 | 949.5 | 940.8 | 931.1
373.15 K, 20000 kPa | 959.9 | 951.8 | 943.2 | 933.6
373.15 K, 30000 kPa | 964.4 | 956.3 | 947.9 | 938.5
373.15 K, 40000 kPa | 968.7 | 960.9 | 952.4 | 943.3
373.15 K, 50000 kPa | 972.8 | 964.9 | 956.6 | 947.6
373.15 K, 60000 kPa | 976.8 | 968.9 | 960.9 | 952.1
373.15 K, 70000 kPa | 980.9 | 973 | 965 | 956.2
373.15 K, 80000 kPa | 984.7 | 976.9 | 969.1 | 960.4
373.15 K, 90000 kPa | 988.6 | 980.6 | 972.8 | 964.3
373.15 K, 100000 kPa | 992.1 | 984.3 | 976.4 | 968.1
373.15 K, 110000 kPa | 995.9 | 988 | 980.3 | 971.9
373.15 K, 120000 kPa | 999.5 | 991.6 | 983.8 | 975.6
373.15 K, 130000 kPa | 1003 | 995 | 987.3 | 979.1
373.15 K, 140000 kPa | 1006.3 | 998.4 | 990.7 | 982.6
393.15 K, 100 kPa | 934.5 | 925.2 | 915 | 903.9
393.15 K, 500 kPa | 934.9 | 925.5 | 915.5 | 904.3
393.15 K, 1000 kPa | 935.1 | 925.7 | 915.7 | 904.6
393.15 K, 2000 kPa | 935.6 | 926.3 | 916.3 | 905.2
393.15 K, 5000 kPa | 937.1 | 927.9 | 917.9 | 907
393.15 K, 10000 kPa | 939.7 | 930.5 | 920.8 | 910
393.15 K, 15000 kPa | 942.1 | 933 | 923.4 | 912.8
393.15 K, 20000 kPa | 944.6 | 935.6 | 926.1 | 915.7
393.15 K, 30000 kPa | 949.3 | 940.5 | 931.2 | 921
393.15 K, 40000 kPa | 953.9 | 945.2 | 936.2 | 926.3
393.15 K, 50000 kPa | 958.2 | 949.6 | 940.8 | 931
393.15 K, 60000 kPa | 962.6 | 954.1 | 945.3 | 935.9
393.15 K, 70000 kPa | 966.9 | 958.5 | 949.8 | 940.5
393.15 K, 80000 kPa | 971 | 962.4 | 953.9 | 944.8
393.15 K, 90000 kPa | 975 | 966.6 | 958.1 | 949.2
393.15 K, 100000 kPa | 978.8 | 970.5 | 962.2 | 953.2
393.15 K, 110000 kPa | 982.7 | 974.3 | 966 | 957.3
393.15 K, 120000 kPa | 986.5 | 978.2 | 969.9 | 961.2
393.15 K, 130000 kPa | 990 | 981.7 | 973.5 | 964.9
393.15 K, 140000 kPa | 993.7 | 985.3 | 977.2 | 968.9

viscosity [mPa·s]
Settings | w1 = 0.1 | w1 = 0.1005 | w1 = 0.2 | w1 = 0.202 | w1 = 0.3 | w1 = 0.3005 | w1 = 0.3995 | w1 = 0.4
353.15 K, 100 kPa, Concentric cylinders viscometry | 0.475 | – | 0.618 | – | 0.809 | – | – | 1.044
353.15 K, 100 kPa, Falling or rolling sphere viscometry | – | 0.4624 | – | 0.6055 | – | 0.8063 | 1.05 | –
353.15 K, 5000 kPa, Falling or rolling sphere viscometry | – | 0.4644 | – | 0.6064 | – | 0.812 | 1.059 | –
353.15 K, 10000 kPa, Falling or rolling sphere viscometry | – | 0.4671 | – | 0.6135 | – | 0.8213 | 1.074 | –
353.15 K, 15000 kPa, Falling or rolling sphere viscometry | – | 0.4699 | – | 0.6195 | – | 0.8321 | 1.09 | –
353.15 K, 20000 kPa, Falling or rolling sphere viscometry | – | 0.472 | – | 0.6229 | – | 0.8407 | 1.105 | –
353.15 K, 25000 kPa, Falling or rolling sphere viscometry | – | 0.4744 | – | 0.6275 | – | 0.8485 | 1.118 | –
353.15 K, 30000 kPa, Falling or rolling sphere viscometry | – | 0.4772 | – | 0.6338 | – | 0.856 | 1.135 | –
353.15 K, 40000 kPa, Falling or rolling sphere viscometry | – | 0.4824 | – | 0.6411 | – | 0.875 | 1.167 | –
353.15 K, 60000 kPa, Falling or rolling sphere viscometry | – | 0.491 | – | 0.659 | – | 0.9078 | 1.225 | –
353.15 K, 80000 kPa, Falling or rolling sphere viscometry | – | 0.4999 | – | 0.6779 | – | 0.9395 | 1.281 | –
353.15 K, 100000 kPa, Falling or rolling sphere viscometry | – | 0.5096 | – | 0.6942 | – | 0.9726 | 1.337 | –
373.15 K, 5000 kPa, Falling or rolling sphere viscometry | – | 0.359 | – | 0.4516 | – | 0.5788 | 0.7177 | –
373.15 K, 10000 kPa, Falling or rolling sphere viscometry | – | 0.3614 | – | 0.4543 | – | 0.5834 | 0.7267 | –
373.15 K, 15000 kPa, Falling or rolling sphere viscometry | – | 0.3638 | – | 0.4578 | – | 0.5895 | 0.7398 | –
373.15 K, 20000 kPa, Falling or rolling sphere viscometry | – | 0.3659 | – | 0.4624 | – | 0.5971 | 0.7525 | –
373.15 K, 25000 kPa, Falling or rolling sphere viscometry | – | 0.3691 | – | 0.4659 | – | 0.602 | 0.7633 | –
373.15 K, 30000 kPa, Falling or rolling sphere viscometry | – | 0.3711 | – | 0.4702 | – | 0.6099 | 0.7742 | –
373.15 K, 40000 kPa, Falling or rolling sphere viscometry | – | 0.3746 | – | 0.4771 | – | 0.6239 | 0.7998 | –
373.15 K, 60000 kPa, Falling or rolling sphere viscometry | – | 0.3833 | – | 0.4923 | – | 0.6493 | 0.8409 | –
373.15 K, 80000 kPa, Falling or rolling sphere viscometry | – | 0.3916 | – | 0.5073 | – | 0.6735 | 0.8827 | –
373.15 K, 100000 kPa, Falling or rolling sphere viscometry | – | 0.3984 | – | 0.5213 | – | 0.6978 | 0.9306 | –
393.15 K, 5000 kPa, Falling or rolling sphere viscometry | – | 0.2917 | – | 0.3533 | – | 0.4325 | 0.5209 | –
393.15 K, 10000 kPa, Falling or rolling sphere viscometry | – | 0.2952 | – | 0.3557 | – | 0.4367 | 0.5259 | –
393.15 K, 15000 kPa, Falling or rolling sphere viscometry | – | 0.2973 | – | 0.3585 | – | 0.4425 | 0.5368 | –
393.15 K, 20000 kPa, Falling or rolling sphere viscometry | – | 0.2998 | – | 0.3624 | – | 0.4483 | 0.5458 | –
393.15 K, 25000 kPa, Falling or rolling sphere viscometry | – | 0.3019 | – | 0.366 | – | 0.4536 | 0.5538 | –
393.15 K, 30000 kPa, Falling or rolling sphere viscometry | – | 0.3036 | – | 0.3687 | – | 0.4597 | 0.5613 | –
393.15 K, 40000 kPa, Falling or rolling sphere viscometry | – | 0.3078 | – | 0.3736 | – | 0.4697 | 0.578 | –
393.15 K, 60000 kPa, Falling or rolling sphere viscometry | – | 0.3147 | – | 0.3862 | – | 0.489 | 0.6086 | –
393.15 K, 80000 kPa, Falling or rolling sphere viscometry | – | 0.322 | – | 0.3985 | – | 0.5076 | 0.6407 | –
393.15 K, 100000 kPa, Falling or rolling sphere viscometry | – | 0.3308 | – | 0.4097 | – | 0.5265 | 0.6716 | –
